This note sets out measurements from patent US20180327367A1, “MACROCYCLIC BROAD SPECTRUM ANTIBIOTICS” (priority 2015, published 2018).

In brackets after ≈: the same amount, converted by molar mass. Read-outs that look alike come from different tables or passages of the source.

The subject of test [1] is Escherichia coli strain ATCC 25922. Description: Neutropenic thigh infection model. Type of test: in vivo. Particulars: neutropenic CD-1 mice, E. coli ATCC 25922, infusion 23 hours, 24 hours post infection, FIG. 1. The method, then: The ability of a compound to inhibit an infection of a bacterial pathogen can be measured using a murine neutropenic thigh infection model. The reduction of bacterial burden is a measure of antibacterial activity in vivo.
Jugular vein cannulated CD-1 mice were subjected to induced neutropenia (<100 cells/mm^3) by injecting 150 mg/kg and 100 mg/kg cyclophosphamide at day −5 and day −2 respectively. At day −1, saline was infused at […] for 12 hours using Harvard Apparatus PHD 2000 Infusion pumps. At day 0, mice were infected in the thigh muscle with 1×10^5 CFU/50 μL of Escherichia coli strain ATCC 25922. […]
At 24 hours post infection, bacterial burden in the thigh muscle was determined by plating the tissue homogenate in serial dilutions on blood agar plates.

The target in test [2] is T1, SpsB (Staphylococcus aureus signal peptidase) (Staphylococcus aureus, UniProt P0A070).
T1 construct: This assay uses a suspension of Staphylococcus aureus cells as a source of SpsB instead of recombinant SpsB protein; endogenous in cells; host or cells: S. aureus, USA300 background, overexpressing SpsB (whole-cell suspension from frozen pellets)
T1 sequence (P0A070 whole entry): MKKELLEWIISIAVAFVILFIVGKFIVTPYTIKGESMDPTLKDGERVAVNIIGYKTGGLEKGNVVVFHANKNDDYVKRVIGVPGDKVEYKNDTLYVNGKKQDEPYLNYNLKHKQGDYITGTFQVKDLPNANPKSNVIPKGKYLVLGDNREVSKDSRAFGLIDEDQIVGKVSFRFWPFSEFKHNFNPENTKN
Kind of test: cell-based. The class given is biochemical. Particulars: SpsB IC50, whole-cell S. aureus (USA300 background, overexpressing SpsB) as SpsB source; fluorogenic peptide substrate, kinetic read 30 min. A digest of the protocol: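 Cleavage of an internally quenched (Dabcyl)βAla-KPAKAAE(Edans) peptide, added as 20 μM solution mixed 1:1 with cells, was followed for 30 min at 340/490 nm. SpsB came from a suspension of SpsB-overexpressing USA300 S. aureus in Tween-80-containing PBS buffer. Slopes plotted against 3-fold compound dilutions gave IC50.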

Test [3] relates to Escherichia coli MC4100 harboring the IMP4213 (E. coli IMP). Kind of test: microbe, parasite or virus in culture. The class given is cell-based. The following applies: Escherichia coli, 22 h. A digest of the protocol:
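Top conc 4 μg/mL (protocol 2) or 0.5 μg/mL (protocol 3), 2-fold series, 10 points. Final OD600 0.0005; 22 h, 35° C. IMP4213 = permeable outer membrane.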

Test [4] deals with Methicillin Resistant Staphylococcus aureus strain USA 300, NRS384. Description: Minimum inhibitory concentration, broth micro-dilution (CLSI), S. aureus. The class given is cell-based. The following applies: Staphylococcus aureus, MRSA / NRS 384 / USA300, 22 h. A digest of the protocol: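 CLSI broth microdilution in cation-adjusted Mueller Hinton Broth with 0.002% Tween-80; inoculum final OD600 0.0005, 22 hours at 35° C. Ten 2-fold dilutions starting at 4 μg/mL (protocol 2) or 0.5 μg/mL (protocol 3).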

The test system of test [5] is Escherichia coli ATCC 25922. Description: Minimum inhibitory concentration, broth micro-dilution (CLSI), E. coli. Type of test: cell-based. Particulars: Escherichia coli, ATCC25922, 22 h. Background: Dilution methods test growth across graded concentrations, often in twofold steps.
[6] abbreviates: read-out: MIC (μg/mL) E. coli IMP, E. coli MC4100 IMP4213, increased outer-membrane permeability, 35° C., 22 hours.
[7] abbreviates: MRSA USA 300 NRS384, 35° C., 22 hours, read-out: MIC (μg/mL) S. aureus.
The mark [8] stands for this setting: E. coli ATCC 25922, 35° C., 22 hours, read-out: MIC (μg/mL) E. coli.
Setting [9] is: read-out: MIC (μg/mL) S. aureus, MRSA USA 300 NRS384, 35° C., 22 hours.
[10] abbreviates: read-out: MIC (μg/mL) E. coli, E. coli ATCC 25922, 35° C., 22 hours.

As a reminder, the IC50 is the concentration that inhibits the measured activity by half. For `CCCCc1ccc(-c2ccc(C(=O)N[C@@H](CCCN)C(=O)N(C)[C@@H]3C(=O)N[C@@H](C)C(=O)N[C@H](C(=O)NCC#N)Cc4ccc(OCCN)c(c4)-c4cc3ccc4OCCN)cc2)cc1` [Compound 135], the “bacterial burden in the thigh muscle” value in test [1] is on record as “dose-dependent reduction in bacterial burden”. For the same molecule, in test [2], the IC50 turned out to be 0.54 nM. The results for the MIC in test [3] (setting [6]), in test [4] (setting [7]) and in test [5] (setting [8]) were 0.023 µg/mL (≈ 0.0259 µM), 0.052 µg/mL (≈ 0.0586 µM) and 0.22 µg/mL (≈ 0.248 µM), respectively.
In the case of `CCCCCCCCCCCCCC(=O)N1C[C@@H](N)CC1C(=O)N(C)[C@@H]1C(=O)N[C@@H](C)C(=O)N[C@H](C(=O)NCC#N)Cc2ccc(OCCN)c(c2)-c2cc1ccc2OCCN` (stereo partly shown) [Compound 481], the IC50 in test [2] was 1.2 nM. Besides, the results for the MIC in test [3] (setting [6]), in test [4] (setting [7]) and in test [5] (setting [8]) were 0.0078 µg/mL (≈ 0.00907 µM), 0.047 µg/mL (≈ 0.0546 µM) and 0.25 µg/mL (≈ 0.291 µM), respectively.
`C[C@@H]1NC(=O)[C@@H](N(C)C(=O)[C@H](CCCCN)NC(=O)c2ccc(-c3ccc(Cl)cc3)cc2)c2ccc(OCCN)c(c2)-c2cc(ccc2OCCN)C[C@@H](C(=O)NCC#N)NC1=O` [Compound 482] yielded an IC50 in test [2] of 1.6 nM. Besides, the MIC in test [3] (setting [6]) turned out to be 0.13 µg/mL (≈ 0.148 µM); in test [4] (setting [9]), 0.13 µg/mL (≈ 0.148 µM); in test [5] (setting [10]), 16 µg/mL (≈ 18.2 µM).
Regarding `C[C@@H]1NC(=O)[C@@H](N(C)C(=O)[C@H](CCCCN)NC(=O)c2ccc(-c3ccc(Cl)cc3)cc2)c2ccc(OCCN)c(c2)-c2cc(ccc2OCCN)C[C@@H](C(=O)N[C@@H](C)C#N)NC1=O` [Compound 483], in test [2], the midpoint of inhibition, the IC50, lay at 6.8 nM. Also, the MIC in test [3] (setting [6]) is 0.5 µg/mL (≈ 0.559 µM); in test [4] (setting [9]) it was 2 µg/mL (≈ 2.24 µM); in test [5] (setting [10]), 48 µg/mL (≈ 53.7 µM).
As for `CCCCCCCCCCCC(=O)N[C@@H](C[C@@H]1CCCN1)C(=O)N(C)[C@@H]1C(=O)N[C@@H](C)C(=O)N[C@H](C(=O)NCC#N)Cc2ccc(OCCN)c(c2)-c2cc1ccc2OCCN` [Compound 484], the IC50 in test [2] was 1 nM. Further, the MIC in test [3] (setting [6]) stood at 0.063 µg/mL (≈ 0.0732 µM); in test [4] (setting [7]), 0.063 µg/mL (≈ 0.0732 µM); in test [5] (setting [8]), 8 µg/mL (≈ 9.3 µM).
Consider `CCCCc1ccc(-c2ccc(C(=O)N[C@@H](CCCCN)C(=O)N(C)[C@@H]3C(=O)N[C@@H](C)C(=O)N[C@H](C(=O)NC4(C#N)CC4)Cc4ccc(OCCN)c(c4)-c4cc3ccc4OCCN)cc2)cc1` [Compound 494], for which the IC50 in test [2] amounted to 2.1 nM. The MIC in test [3] (setting [6]) was 0.5 µg/mL (≈ 0.539 µM); in test [4] (setting [7]), 1 µg/mL (≈ 1.08 µM); in test [5] (setting [8]), 16 µg/mL (≈ 17.2 µM).
For `CCCCc1ccc(-c2ccc(C(=O)N[C@@H](CCCCN)C(=O)N(C)[C@@H]3C(=O)N[C@@H](C)C(=O)N[C@H](C(=O)NC4(C#N)CC4)Cc4ccc(O)c(c4)-c4cc3ccc4OCCN)cc2)cc1` [Compound 495] the same measures were 20 nM, 1 µg/mL (≈ 1.13 µM), 3 µg/mL (≈ 3.39 µM) and 16 µg/mL (≈ 18.1 µM).
Take `CCCCc1ccc(-c2ccc(C(=O)N[C@@H](CCCCN)C(=O)N(C)[C@@H]3C(=O)N[C@@H](C)C(=O)N[C@H](C(=O)NC(C)(C)C#N)Cc4ccc(OCCN)c(c4)-c4cc3ccc4OCCN)cc2)cc1` [Compound 496]: half-maximal inhibition in test [2] (IC50) was put at 17 nM. In addition, the MIC turned out to be 0.5 µg/mL (≈ 0.538 µM) in test [3] (setting [6]), 3 µg/mL (≈ 3.23 µM) in test [4] (setting [7]) and 16 µg/mL (≈ 17.2 µM) in test [5] (setting [8]).
Take `CCCCc1ccc(-c2ccc(C(=O)N[C@@H](CCCN)C(=O)N(C)[C@@H]3C(=O)N[C@@H](C)C(=O)N[C@H](C(=O)N4CC4C#N)Cc4ccc(OCCN)c(c4)-c4cc3ccc4OCCN)cc2)cc1` (stereo partly shown) [Compound 520]: in test [2], the IC50 came to 0.73 nM. The MIC in test [3] (read-out: MIC (μg/mL) E. coli IMP) amounted to 0.19 µg/mL (≈ 0.211 µM); in test [4] (read-out: MIC (μg/mL) S. aureus), 0.38 µg/mL (≈ 0.422 µM); in test [5] (read-out: MIC (μg/mL) E. coli) it was 6 µg/mL (≈ 6.67 µM).
